Source: US20050197365A1, “Diamino thiazoloindan derivatives and their use” (priority 2004, published 2005)

Columns and labels:
MPP+ treated PC-12 cells = test: Effect on MPP+ treated PC-12 cells (neuroprotection, LDH release); assay type: cell-based; settings: 1000 μM MPP+ for 48 hours, LDH in medium
Procedure: Pheochromocytoma PC-12 cells (at a density of 200,000 cells/well) were cultured for 10 days with 50 ng/ml NGF on 6-well culture dishes coated with […] rat tail type I collagen (BD Biosciences, Bedford, Mass., USA). At the day of the experiment the morphological differentiation of the cells was very advanced (typical network formation). In order to initiate the neurotoxic insult, cells were treated with 1000 μM of 1-methyl-4-phenylpyrdinium (MPP+) iodide salt from RBI chemicals (Natick, Mass., USA) for 48 hours in the absence or presence of tested compounds, added to the culture 30 min. prior to MPP+ administration. […] At the cellular level, neuronal cell death is induced by several mechanisms including pathological concentrations of intracellular calcium and free oxygen radicals. Therefore the positive controls in this experiment were nimodipine at the concentration of 10 μM (RBI chemicals, Natick, Mass., USA) (a potent L-type calcium channel blocker) and 4-hydroxy-2,2,6,6-tetramethylpiperidyne-1-oxyl (tempol, a potent antioxidant) at a concentration of 500 μM, (Sigma, St Louis, Mo., USA). At the end of the experiment cell death was measured by assessing Lactate dehydrogenase (LDH) activity in the medium. High medium LDH indicated increased neuronal death that promoted leakage of this cytoplasmic enzyme into the medium.
Measuring lactate dehydrogenase activity in the medium was performed using a Sigma Diagnostics LD-L reagent. LDH activity was spectrophotometrically monitored at 340 nm by following the rate of conversion of oxidized nicotinamide adenine dinucleotide (NAD^+) to the reduced form of (NADH). Total LDH of each culture (extracellular+intracellular) was obtained by measuring LDH in the medium after freezing and thawing of the cultures. Basal LDH release was measured in untreated cultures (no MPP+). The neurotoxic effect was calculated according to the formula: (LDHs−LDHb)/LDHt×100. (s=sample; b=basal; t=total). Each compound was tested in sixplicate.
To calculate the percentage of neuroprotection for each set of sixplicate experiments, the average neurotoxicity was calculated and the following calculation was undertaken: 100−([neurotoxicity test compound/neurotoxicity MPP^+]×100).

EAE = test: Experimental Allergic Encephalomyelitis (EAE) model of MS; assay type: in vivo, mice; settings: for incidence Value: mice, 10/group; for GMS % inhibition (first GMS column) / GMS % inhibition (second GMS column) / incidence % inhibition: vs methyl cellulose control; for GMS Value (first GMS column) / GMS Value (second GMS column): EAE score scale 0-5
[1] = Dose 1 μM, NGF-differentiated PC-12 cells
[2] = Dose 10 μM, NGF-differentiated PC-12 cells
[3] = 2 × 10 mg/kg oral (twice a day)

SMILES | % neuroprotection (MPP+ treated PC-12 cells; [1]) | % neuroprotection (MPP+ treated PC-12 cells; [2]) | Mean duration (EAE; 2 × 5 mg/kg oral) [days] | incidence Value (EAE; 2 × 5 mg/kg oral (twice a day)) | GMS % inhibition (first GMS column) (EAE; 2 × 5 mg/kg oral) [%] | GMS % inhibition (second GMS column) (EAE; 2 × 5 mg/kg oral) [%] | incidence % inhibition (EAE; 2 × 5 mg/kg oral) [%] | GMS Value (first GMS column) (EAE; 2 × 5 mg/kg oral) | GMS Value (second GMS column) (EAE; 2 × 5 mg/kg oral) | Mean duration (EAE; 2 × 10 mg/kg oral) [days] | incidence Value (EAE; [3]) | GMS % inhibition (first GMS column) (EAE; 2 × 10 mg/kg oral) [%] | GMS % inhibition (second GMS column) (EAE; 2 × 10 mg/kg oral) [%] | incidence % inhibition (EAE; 2 × 10 mg/kg oral) [%] | GMS Value (first GMS column) (EAE; 2 × 10 mg/kg oral) | GMS Value (second GMS column) (EAE; 2 × 10 mg/kg oral) | % neuroprotection (MPP+ treated PC-12 cells; Dose 1000 μM (positive control)) [%]
C#CCNC1CCc2cc3sc(N)nc3cc21.Cl.Cl (stereo not drawn) [Compound A-1, N5-prop-2-ynyl-6,7-dihydro-5H-1-thia-3-aza-s-indacene-2,5-diamine diHCl] | 50% | 60% | 3.0 ± 6.3 | 2/10 | 40.0 | 33.3 | 50.0 | 0.6 ± 1.3 | 0.4 ± 0.8 | 1.8 ± 5.7 | 1/10 | 70.0 | 66.7 | 75.0 | 0.3 ± 0.9 | 0.2 ± 0.6 | 
C#CCNC1CCc2ccc3nc(N)sc3c21.Cl.Cl (stereo not drawn) [Compound B-1, N8-prop-2-ynyl-7,8-dihydro-6H-1-thia-3-aza-as-indacene-2,8-diamine diHCl] | 60-87% | 58-81% | 0.1 ± 0.3 | 1/10 | 90.0 | 99.2 | 75.0 | 0.1 ± 0.3 | 0.005 ± 0.02 | 3.3 ± 7.0 | 2/10 | 60.0 | 50.0 | 50.0 | 0.4 ± 1.0 | 0.3 ± 0.8 | 
CC1(C)CC(O)CC(C)(C)N1[O] [Tempol, 4-hydroxy-2,2,6,6-tetramethylpiperidyne-1-oxyl, reference compound] |  |  |  |  |  |  |  |  |  |  |  |  |  |  |  |  | 100
